The record followed here is US8569344B2, “N-piperidinyl acetamide derivatives as calcium channel blockers” (Zalicus Pharmaceuticals Ltd., priority 2008, dated 2013).

T1 sequence (O95180 whole entry): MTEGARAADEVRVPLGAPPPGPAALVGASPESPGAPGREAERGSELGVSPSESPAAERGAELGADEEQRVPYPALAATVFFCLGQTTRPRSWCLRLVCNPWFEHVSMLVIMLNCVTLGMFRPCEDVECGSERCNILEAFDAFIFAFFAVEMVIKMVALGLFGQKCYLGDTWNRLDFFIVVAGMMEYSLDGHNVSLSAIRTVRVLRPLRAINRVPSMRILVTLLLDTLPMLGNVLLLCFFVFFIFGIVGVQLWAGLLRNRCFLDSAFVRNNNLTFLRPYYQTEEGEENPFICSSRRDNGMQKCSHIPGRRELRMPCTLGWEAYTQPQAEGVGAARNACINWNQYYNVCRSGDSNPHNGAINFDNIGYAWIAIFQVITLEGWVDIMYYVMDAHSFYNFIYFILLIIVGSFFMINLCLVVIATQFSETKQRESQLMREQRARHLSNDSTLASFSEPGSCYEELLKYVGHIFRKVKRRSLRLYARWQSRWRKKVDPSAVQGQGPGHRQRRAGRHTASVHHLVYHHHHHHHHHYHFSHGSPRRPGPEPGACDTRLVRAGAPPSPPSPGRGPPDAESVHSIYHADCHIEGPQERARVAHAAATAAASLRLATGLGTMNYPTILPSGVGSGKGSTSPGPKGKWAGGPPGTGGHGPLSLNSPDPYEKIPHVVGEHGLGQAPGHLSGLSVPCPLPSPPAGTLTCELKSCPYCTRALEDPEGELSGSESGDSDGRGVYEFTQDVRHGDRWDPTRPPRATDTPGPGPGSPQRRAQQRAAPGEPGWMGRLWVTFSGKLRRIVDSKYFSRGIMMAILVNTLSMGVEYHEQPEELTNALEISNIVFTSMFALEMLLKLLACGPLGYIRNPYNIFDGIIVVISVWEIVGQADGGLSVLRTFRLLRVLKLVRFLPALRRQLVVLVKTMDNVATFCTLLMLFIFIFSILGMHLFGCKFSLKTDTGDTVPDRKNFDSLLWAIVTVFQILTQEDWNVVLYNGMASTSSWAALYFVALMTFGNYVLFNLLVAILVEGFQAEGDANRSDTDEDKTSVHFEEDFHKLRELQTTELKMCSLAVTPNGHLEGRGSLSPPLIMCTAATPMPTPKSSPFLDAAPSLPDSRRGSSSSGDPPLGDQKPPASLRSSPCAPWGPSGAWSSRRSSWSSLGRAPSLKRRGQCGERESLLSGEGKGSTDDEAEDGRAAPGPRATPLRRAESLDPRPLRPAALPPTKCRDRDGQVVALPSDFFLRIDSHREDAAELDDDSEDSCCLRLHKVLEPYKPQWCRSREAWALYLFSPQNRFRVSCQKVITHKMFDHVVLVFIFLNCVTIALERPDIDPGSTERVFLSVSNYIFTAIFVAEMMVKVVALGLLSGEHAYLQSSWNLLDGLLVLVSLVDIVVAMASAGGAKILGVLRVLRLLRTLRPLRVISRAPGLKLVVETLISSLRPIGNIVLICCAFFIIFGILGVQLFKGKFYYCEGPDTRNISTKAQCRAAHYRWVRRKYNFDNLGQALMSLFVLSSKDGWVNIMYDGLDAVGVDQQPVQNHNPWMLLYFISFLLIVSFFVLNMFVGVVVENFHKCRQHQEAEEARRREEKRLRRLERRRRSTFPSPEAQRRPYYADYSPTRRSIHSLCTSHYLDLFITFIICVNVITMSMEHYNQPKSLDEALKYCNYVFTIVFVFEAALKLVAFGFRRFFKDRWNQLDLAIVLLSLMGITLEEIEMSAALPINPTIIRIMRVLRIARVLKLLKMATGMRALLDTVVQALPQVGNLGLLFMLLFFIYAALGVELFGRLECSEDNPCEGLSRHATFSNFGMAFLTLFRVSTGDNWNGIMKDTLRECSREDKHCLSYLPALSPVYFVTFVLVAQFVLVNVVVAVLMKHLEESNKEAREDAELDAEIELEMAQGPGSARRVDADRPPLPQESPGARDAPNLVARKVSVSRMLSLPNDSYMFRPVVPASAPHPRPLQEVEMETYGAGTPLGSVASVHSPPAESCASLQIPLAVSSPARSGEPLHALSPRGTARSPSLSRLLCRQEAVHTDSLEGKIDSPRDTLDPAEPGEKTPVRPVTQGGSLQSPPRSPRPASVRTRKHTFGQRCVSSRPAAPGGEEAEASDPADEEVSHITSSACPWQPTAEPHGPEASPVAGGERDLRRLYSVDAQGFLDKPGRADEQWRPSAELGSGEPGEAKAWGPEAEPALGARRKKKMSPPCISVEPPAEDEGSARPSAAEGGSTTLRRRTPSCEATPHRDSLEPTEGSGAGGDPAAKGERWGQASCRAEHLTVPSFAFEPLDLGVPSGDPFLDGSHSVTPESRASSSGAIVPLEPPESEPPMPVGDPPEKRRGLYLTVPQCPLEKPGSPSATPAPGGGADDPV

The experiment concerns the target T1, human α1H T-type channels (Homo sapiens, UniProt O95180).
T1 construct: expressed in transfected cells; host or cells: HEK 293
Briefly: T-type calcium channel block, whole cell patch clamp in HEK cells (α1H). The format is cell-based. As to conditions: HEK cells, patch clamp, mainly non-inactivated protocol; values above 10 μM shown as 10 μM; read-out: T-type Calcium Channel Block α1H IC50. How it is done:
T-type calcium channel blocking activity was assayed in human embryonic kidney cells, HEK 293, stably transfected with the T-type calcium channel subunits. Briefly, cells were cultured in Dulbecco's modified eagle medium (DMEM) supplemented with 10% fetal bovine serum, 200 U/ml penicillin and 0.2 mg/ml streptomycin at 37° C. with 5% CO2. At 85% confluency cells were split with 0.25% trypsin/1 mM EDTA and plated at 10% confluency on glass coverslips. […] Fresh DMEM was supplied and the cells transferred to 28° C./5% CO2. Cells were incubated for 1 to 2 days prior to whole cell recording.
Standard patch-clamp techniques were employed to identify blockers of T-type currents. Briefly, previously described HEK cell lines stably expressing human α1G, α1H and α1I T-type channels were used for all the recordings (passage #: 4-20, 37° C., 5% CO2). Whole cell patch clamp experiments were performed using an Axopatch 200B amplifier (Axon Instruments, Burlingame, Calif.) linked to a personal computer equipped with pCLAMP software. Data were analyzed using Clampfit (Axon Instruments) and SigmaPlot 4.0 (Jandel Scientific). To obtain T-type currents, plastic dishes containing semi-confluent cells were positioned on the stage of a ZEISS AXIOVERT S100 microscope after replacing the culture medium with external solution (see below). Whole-cell patches were obtained using pipettes (borosilicate glass with filament, O.D.: 1.5 mm, I.D.: 0.86 mm, 10 cm length), fabricated on a SUTTER P-97 puller with resistance values of ˜5 MΩ (see below for internal solution).
In the non-inactivating protocol, the holding potential is set at −110 mV and with a pre-pulse at −100 mV for 1 second prior to the test pulse at −40 mV for 50 ms.
Test compounds were dissolved in external solution, 0.1-0.01% DMSO. After ˜10 min rest, they were applied by gravity close to the cell using a WPI microfil tubing. The “non-inactivated” pre-pulse was used to examine the resting block of a compound. The “inactivated” protocol was employed to study voltage-dependent block. […] Values are shown in μM and values above 10 μM are simply represented as 10 μM.
In general terms: The patch-clamp technique gives a direct electrical read-out from membranes.
A word on the IC50: it is the point on the concentration scale where inhibition reaches its midpoint. Regarding `O=C(NCC1CCN(C(=O)CNC2CC2)CC1)c1cc(F)cc(C(F)(F)F)c1` [Compound 284, N-((1-(2-(cyclopropylamino)acetyl)piperidin-4-yl)methyl)-3-fluoro-5-(trifluoromethyl)benzamide], the IC50 was greater than 10000 nM.
In the case of `CC1CCCN(C(=O)CN2CCC(CNC(=O)c3cc(C(F)(F)F)cc(C(F)(F)F)c3)CC2)C1` (stereo not shown) [Compound 99, N-((1-(2-(3-methylpiperidin-1-yl)-2-oxoethyl)piperidin-4-yl)methyl)-3,5-bis(trifluoromethyl)benzamide] it was 210 nM; in that of `O=C(CN1CCC(CNC(=O)c2cc(C(F)(F)F)cc(C(F)(F)F)c2)CC1)NC1CCCCC1` [Compound 94, N-((1-(2-(cyclohexylamino)-2-oxoethyl)piperidin-4-yl)methyl)-3,5-bis(trifluoromethyl)benzamide], 60 nM.
Under `CC(C)(CN1CCC(CNC(=O)c2cc(F)cc(C(F)(F)F)c2)CC1)NS(=O)(=O)C1CC1` [Compound 8, N-((1-(2-(cyclopropanesulfonamido)-2-methylpropyl)piperidin-4-yl)methyl)-3-fluoro-5-(trifluoromethyl)benzamide] stands 2420 nM.
Under `O=C(NCC1CCN(CC(=O)N2CCC(O)CC2)CC1)c1cc(C(F)(F)F)cc(C(F)(F)F)c1` [Compound 102, N-((1-(2-(4-hydroxypiperidin-1-yl)-2-oxoethyl)piperidin-4-yl)methyl)-3,5-bis(trifluoromethyl)benzamide] stands greater than 10000 nM.
For the compound `CCC(=O)NCCN1CCC(CNC(=O)c2cc(C(F)(F)F)cc(C(F)(F)F)c2)CC1` [Compound 58, N-((1-(2-propionamidoethyl)piperidin-4-yl)methyl)-3,5-bis(trifluoromethyl) benzamide], the half-inhibitory concentration (IC50) came to 4010 nM.
In the case of `O=C(NCC1CCN(C2CN(C(=O)C3(C(F)(F)F)CC3)C2)CC1)c1cc(F)cc(Cl)c1` [Compound 609, 3-chloro-5-fluoro-N-((1-(1-(1-(trifluoromethyl)cyclopropanecarbonyl)azetidin-3-yl)piperidin-4-yl)methyl) benzamide], the IC50 was found to be 3050 nM.
In the case of `COC1CCN(C(=O)CN2CCC(CNC(=O)c3cc(C(F)(F)F)cc(C(F)(F)F)c3)CC2)CC1` [Compound 103, N-((1-(2-(4-methoxypiperidin-1-yl)-2-oxoethyl)piperidin-4-yl)methyl)-3,5-bis(trifluoromethyl)benzamide] it was 1210 nM; in that of `CC(C)CS(=O)(=O)NCCN1CCC(CNC(=O)c2cc(C(F)(F)F)cc(C(F)(F)F)c2)CC1` [Compound 27, N-((1-(2-(2-methylpropylsulfonamido)ethyl)piperidin-4-yl)methyl)-3,5-bis(trifluoromethyl)benzamide], 190 nM; in that of `CN(C(=O)CN1CCC(CNC(=O)c2cc(Cl)cc(Br)c2)CC1)C1(C)CCC1` [Compound 595, 3-bromo-5-chloro-N-((1-(2-(methyl(1-methylcyclobutyl)amino)-2-oxoethyl)piperidin-4-yl)methyl)benzamide], 80 nM.
In the case of `CC(C)(C)OC(=O)N1CCC(O)(CN2CCC(CNC(=O)c3cc(F)cc(C(F)(F)F)c3)CC2)CC1` [Compound 599, tert-butyl 4-((4-((3-fluoro-5-(trifluoromethyl)benzamido)methyl)piperidin-1-yl)methyl)-4-hydroxy-piperidine-1-carboxylate] it was 1470 nM.
For `CN(C(=O)CN1CCC(CNC(=O)c2cc(Cl)cc(Cl)c2)CC1)C1(C)CCC1` [Compound 592, 3,5-dichloro-N-((1-(2-(methyl(1-methylcyclobutyl)amino)-2-oxoethyl)piperidin-4-yl)methyl) benzamide], the IC50 worked out at 80 nM.
With `O=C(CCC(F)(F)F)NCCN1CCC(CNC(=O)c2cc(C(F)(F)F)cc(C(F)(F)F)c2)CC1` [Compound 66, N-((1-(2-(4,4,4-trifluorobutanamido)ethyl)piperidin-4-yl)methyl)-3,5-bis(trifluoromethyl) benzamide], the half-inhibitory concentration (IC50) is 370 nM.
Under `CC(C)(C)NC(=O)N1CC(N2CCC(CNC(=O)c3cc(F)cc(Cl)c3)CC2)C1` [Compound 612, N-tert-butyl-3-(4-((3-chloro-5-fluorobenzamido)methyl)piperidin-1-yl)azetidin-1-carboxamide] stands greater than 10000 nM; under `O=C(NCC1CCN(C2CN(C(=O)c3cccc(OC(F)(F)F)c3)C2)CC1)c1cc(F)cc(Cl)c1` [Compound 603, 3-chloro-5-fluoro-N-((1-(1-(3-(trifluoromethoxy)benzoyl)azetidin-3-yl)piperidin-4-yl)methyl)benzamide], 810 nM.
For `O=C(CN1CCC(CNC(=O)c2cc(C(F)(F)F)cc(C(F)(F)F)c2)CC1)NC1CCCC1` [Compound 92, N-((1-(2-(cyclopentylamino)-2-oxoethyl)piperidin-4-yl)methyl)-3,5-bis(trifluoromethyl)benzamide], the IC50 came out at 60 nM.
Consider `O=C(CN1CCC(CNC(=O)c2cc(C(F)(F)F)cc(C(F)(F)F)c2)CC1)NC1CC1` [Compound 95, N-((1-(2-(cyclopropylamino)-2-oxoethyl)piperidin-4-yl)methyl)-3,5-bis(trifluoromethyl)benzamide], for which the IC50 is greater than 10000 nM.
Turning to `C[C@H]1CC[C@H](NC(=O)CN2CCC(CNC(=O)c3cc(C(F)(F)F)cc(C(F)(F)F)c3)CC2)CC1` [Compound 97, N-((1-(2-((1r,4r)-4-methylcyclo-hexylamino)-2-oxoethyl)piperidin-4-yl)methyl)-3,5-bis(trifluoromethyl) benzamide], the IC50 is 100 nM.
`CC1(C(=O)N2CC(N3CCC(CNC(=O)c4cc(F)cc(Cl)c4)CC3)C2)CCC(F)(F)CC1` [Compound 611, 3-chloro-N-((1-(1-(4,4-difluoro-1-methylcyclohexanecarbonyl)azetidin-3-yl)piperidin-4-yl)methyl)-5-fluorobenzamide]: the IC50 is 290 nM.
Take `O=C(CC1CC1)NCCN1CCC(CNC(=O)c2cc(C(F)(F)F)cc(C(F)(F)F)c2)CC1` [Compound 63, N-((1-(2-(2-cyclopropylacetamido)ethyl)piperidin-4-yl)methyl)-3,5-bis(trifluoromethyl)benzamide]: the IC50 was found to be 430 nM.
On to `COCCC(=O)NCCN1CCC(CNC(=O)c2cc(C(F)(F)F)cc(C(F)(F)F)c2)CC1` [Compound 68, N-((1-(2-(3-methoxypropanamido)ethyl)piperidin-4-yl)methyl)-3,5-bis(trifluoromethyl) benzamide], for which the half-inhibitory concentration (IC50) stood at 7560 nM.
For `O=C(NCC1CCN(CC(=O)N2CCC(CO)CC2)CC1)c1cc(C(F)(F)F)cc(C(F)(F)F)c1` [Compound 106, N-((1-(2-(4-(hydroxymethyl)piperidin-1-yl)-2-oxoethyl)piperidin-4-yl)methyl)-3,5-bis(trifluoromethyl)benzamide], the IC50 turned out to be 5560 nM.
Consider `CC(C)(C)C(=O)NCCN1CCC(CNC(=O)c2cc(C(F)(F)F)cc(C(F)(F)F)c2)CC1` [Compound 60, N-((1-(2-pivalamidoethyl)piperidin-4-yl)methyl)-3,5-his(trifluoromethyl)benzamide], for which the 50% inhibitory concentration (IC50) came out at 220 nM.
`CC(C)(CN1CCC(CNC(=O)c2cc(F)cc(C(F)(F)F)c2)CC1)NS(=O)(=O)C(F)(F)F` [Compound 6, 3-fluoro-N-((1-(2-methyl-2-(trifluoromethylsulfonamido)propyl)piperidin-4-yl)methyl)-5-(trifluoromethyl)benzamide]: the IC50 stood at 1320 nM.
Take `COc1cc(Cl)cc(C(=O)N2CC(N3CCC(CNC(=O)c4cc(F)cc(Cl)c4)CC3)C2)c1` [Compound 600, 3-chloro-N-((1-(1-(3-chloro-5-methoxybenzoyl)azetidin-3-yl)piperidin-4-yl)methyl)-5-fluoro-benzamide]: the IC50 came to 2050 nM.
Regarding `C[C@@H]1CCCCN1C(=O)CN1CCC(CNC(=O)c2cc(C(F)(F)F)cc(C(F)(F)F)c2)CC1` [Compound 104, (R)-N-((1-(2-(2-methylpiperidin-1-yl)-2-oxoethyl)piperidin-4-yl)methyl)-3,5-bis(trifluoromethyl)benzamide], the IC50 came to 140 nM.
With `CN(C(=O)CN1CCC(CNC(=O)c2cc(C(F)(F)F)cc(C(F)(F)F)c2)CC1)C1CCCCC1` [Compound 101, N-((1-(2-(cyclohexyl(methyl)amino)-2-oxoethyl)piperidin-4-yl)methyl)-3,5-bis(trifluoromethyl)benzamide], the IC50 is 140 nM.
In the case of `COc1cc(Cl)cc(C(=O)NCC2CCN(CC(=O)N(C)C3(C)CCC3)CC2)c1` [Compound 591, 3-chloro-5-methoxy-N-((1-(2-(methyl(1-methylcyclobutyl)amino)-2-oxoethyl)piperidin-4-yl)methyl)benzamide] it was 170 nM.
